Common to all, as to format: ADME
Data set [1] is described as follows: Passive permeability of the compound by PAMPA assay. The note with it: read-out: permeability. A general note: PAMPA measures passive passage across an artificial lipid membrane.
Data set [2] can be described thus: Solubility of the compound in fasted simulated intestinal fluid after 4 hrs.
The nature of data set [3]: Stability of the compound in simulated gastric fluid after 24 hrs at 37 degC. The note with it: simulated gi fluid.

In brackets after ≈: the same amount, converted by molar mass.

As usually defined, the solubility is the dissolved amount per volume that the medium holds. Regarding `CC(C)S(=O)(=O)c1c(Cl)ccc(Nc2nc(=O)cc(C(C)(C)C)[nH]2)c1O`, in data set [1], the Papp was 37 ×10⁻⁶ cm/s. The same compound registered a solubility at 4 h in data set [2] of 33 µg/mL (≈ 82.5 µM). Further, the Stability result in data set [3] is on record as “Stable”.
